Measurements: patent US11578369B2, “Method for the in vitro prognosis of individuals having multiple myeloma and method for the treatment thereof” (CENTRE NATIONAL DE LA RECHERCHE SCIENTIFIQUE, priority 2016, dated 2023)
Several values for one entry are separate records, joined by “and”; a condition that tells them apart may be missing. Identical values can stand only once.

Experiments:
Type in all cases: cell-based, human
HMCLs [1] = test: Sublethal dose (IC10) of Decitabine on HMCLs
Experimental: To assess the potential synergistic effect of the inhibition of these two repressive mechanisms, we tested the combination of a sublethal dose of Decitabine (100 nM, IC10) with EPZ-6438 (1 μM) on two EPZ-6438-resistant HMCLs. […] Therefore, DNA hypomethylation can collaborate with EZH2 inhibition to block MM cell growth.

primary MMCs = test: Sensitivity of patients' primary MMCs to EPZ-6438, 8-day culture, viable MMC count by CD138 flow cytometry; conditions: primary MMCs of 14 MM patients, one table row per patient; 1 μM EPZ-6438, 8 days, IL-6; in % (unit assumed)
Experimental: FIG. 3B: EZ score predicts for sensitivity of HMCLs and primary MMCs to EZH2 inhibitor. EZ score predicts for EPZ-6438 sensitivity of primary myeloma cells of patients. Mononuclear cells from tumor samples of 14 patients with MM were cultured for 8 days in the presence of IL-6 (2 ng/ml) with or without 1 μM EPZ-6438. At day 8 of culture, the count of viable MMCs was determined using CD138 staining by flow cytometry.
Bone marrow samples were collected after patients' written informed consent in accordance with the Declaration of Helsinki and institutional research board approval from Heidelberg and Montpellier University hospital. […] The structural chromosomal aberrations including t(4; 14)(p16.3; q32.3) and t(11; 14)(q13; q32.3), as well as numerical aberrations including 17p13 and 1q21 gain, were assayed by fluorescence in situ hybridization (iFISH). […] As iFISH data are not available for UAMS-TT2 patients, t(4; 14) translocation was evaluated using MMSET spike expression and del17p13 surrogated by TP53 probe set signal. […]
The inventors have determined that a set of 5 genes that are differentially expressed in a cohort of 14 MM individuals is associated with a prognostic value of their responsiveness to the EZH2 inhibitor EPZ-6438, as shown in Table 2 below. […]

HMCLs [2] = test: Sensitivity of HMCLs with high or low EZ score to EPZ-6438, cell growth assay; conditions: 1 μM EPZ-6438, 8 days; P=0.04
Experimental: FIG. 3A: EZ score predicts for sensitivity of HMCLs and primary MMCs to EZH2 inhibitor. […] Human myeloma cell lines were cultured for 8 days in 96-well flat-bottom microtiter plates in RPMI 1640 medium, 10% fetal calf serum, 2 ng/ml IL-6 culture medium (control) and 1 μM EPZ-6438. Data are mean values±standard deviation (s.d.) of five experiments determined.
HMCLs were cultured for 15 days in RPMI 1640 medium, 10% FCS, and 2 ng/ml IL-6 (control medium) in the presence of EPZ-6438 ([…]®). Cell concentration and viability were assessed using trypan blue dye exclusion test. The number of metabolic-active was also determined using intracellular ATP quantitation. […] Cell growth was evaluated by quantifying intracellular ATP amount with a Cell Titer Glo Luminescent Assay (PROMEGA®, Madison, Wis.) using a Centro LB 960 luminometer (BERTHOLD TECHNOLOGIES®, Bad Wildbad, Germany).
It was then sought to validate whether the EZ-score could predict for the sensitivity of 10 HMCLs to EPZ-6438. Starting from the large cohort of 40 HMCLs, the response of 5 HMCLs with a high EZ score and 5 HMCLs with a low EZ score to EPZ-6438 EZH2 inhibitor was analyzed.

[3] = test system: LP1 and XG19 lenalidomide sensitive cell lines; test: Lenalidomide sensitivity of HMCLs after EPZ-6438 pretreatment, cell growth assay; conditions: 4 days 1 uM EPZ-6438 prior to lenalidomide, P<0.05
Experimental: HMCLs were cultured for 15 days in RPMI 1640 medium, 10% FCS, and 2 ng/ml IL-6 (control medium) in the presence of EPZ-6438 ([…] ®). Cell concentration and viability were assessed using trypan blue dye exclusion test. The number of metabolic-active was also determined using intracellular ATP quantitation.

IKZF1 = IKZF1 protein level in HMCLs by flow cytometry; conditions: 1 μM EPZ-6438 4 days, then 2 days with or without 2 μM lenalidomide
Experimental: (§1) The expression of IKZF1, c-Myc and IRF4 in HMCLs was evaluated by flow cytometry using PE-conjugated anti-IKZFL anti-MYC and anti-IRF4 mAb and isotype matched PE-conjugated mAb. Data are mean values±standard deviation (SD) of three experiments.
(§2) The expression of IKZF1, c-Myc and IRF4 in HMCLs was evaluated by flow cytometry using PE-conjugated anti-IKZF1, anti-MYC and anti-IRF4 mAb and isotype matched PE-conjugated mAb. IKZF1 expression was assessed by immunofluorescence using an anti-IKZF1 primary antibody and an AF555-conjugated secondary antibody and further plotted onto a graph.
(§3) Cells were fixed for 10 min with Cytofix/Cytoperm (BD BIOSCIENCES®) at 4° C.
(§4) IMiDs promote Ikaros and Aiolos transcription factors binding to the E3 ubiquitin ligase cereblon (CRBN) leading to Ikaros and Aiolos ubiquitination and proteasomal degradation. Ikaros and Aiolos degradation are associated with a downregulation of Interferon regulatory factor 4 (IRF4) and MYC playing an essential role in MMC survival.

IRF4 = IRF4 protein level in HMCLs by flow cytometry; conditions: 1 μM EPZ-6438 4 days, then 2 days with or without 2 μM lenalidomide
Experimental: as §1, §2, §3, §4

MYC = MYC protein level in HMCLs by flow cytometry; conditions: 1 μM EPZ-6438 4 days, then 2 days with or without 2 μM lenalidomide
Experimental: as §1, §2, §3, §4

SMILES	IC10 (HMCLs [1])	Response (primary MMCs)	median higher EPZ-6438 sensitivity, 5 HMCLs with highest EZ score compared to 5 HMCLs with low EZ-score (HMCLs [2])	sensitization of myeloma cell lines to lenalidomide treatment [3]	IKZF1 protein level inhibition (IKZF1)	IRF4 protein level inhibition (IRF4)	MYC protein level inhibition (MYC)
Nc1ncn([C@H]2C[C@H](O)[C@@H](CO)O2)c(=O)n1 [Decitabine]	100 nM						
CCN(c1cc(-c2ccc(CN3CCOCC3)cc2)cc(C(=O)NCc2c(C)cc(C)[nH]c2=O)c1C)C1CCOCC1 [EPZ-6438, EPZ-6438 (Tazemetostat)]		64.15 and 46.39 and 53.41 and 61.33 and 72.61 and 112.5 and 84.96 and 118 and 79.27 and 77.76 and 101.43 and 73.09 and 66.53 and 72.01	20 fold	significantly sensitize	45.2%	38.7%	6.2%
Nc1cccc2c1CN(C1CCC(=O)NC1=O)C2=O (stereo not drawn) [lenalidomide]						43%	2.2%
